Data from patent US9504702B2, “Methods of inhibition of protein fucosylation in vivo using fucose analogs” (Seattle Genetics, Inc., priority 2010, dated 2016).
Read-outs that look alike come from different tables or passages of the source.

Assays:
[1] = system: antibody core fucosylation (antibodies that did not bind to KLH, recovered from protein A column); test: In vivo antibody fucosylation after ip dosing (Example 1, Study 1), AOL lectin dot blot; conditions: 150 mg/kg ip daily for 7 days; for fucosylation levels of the antibodies reduced, as compared to the untreated controls: non-KLH antibodies from protein A column, dot blot, on average
Description: Female BALB/c mice were immunized with Keyhole Limpet Hemocyanin (KLH) 30-60 days prior to starting this study. For the first study, mice were dosed ip with 150 mg/kg of alkynyl fucose (SGD-1887), alkynyl fucose peracetate (SGD-1890), 2-fluorofucose (SGD-2083), or 2-fluorofucose triacetate (SGD-2084) daily for 7 days or were untreated. On day 2, mice were also boosted with KLH. On the day after the last ip dose, mice were terminally bled and serum obtained. For the second study, mice were given 100 mM of 2-fluorofucose (SGD-2083) in their drinking water or given untreated water for 7 days, boosted with KLH, and continued with 100 mM 2-fluorofucose containing drinking water or untreated water for 7 more days before being terminally bled. Serum was then obtained. No mice died in either study. For both studies, serum was passed over a commercial anti-KLH affinity column to obtain KLH-specific polyclonal antibodies. The flow through from the anti-KLH affinity column was passed over a commercial protein A column to obtain the remaining antibodies.
Dot blots: 0.5 μg each of antibodies from untreated and treated animals, as well as standards of antibody cAC10 having known amounts of core fucosylation (0 to 100% fucose), were blotted onto a nitrocellulose membrane. The proteins levels were visualized by Ponceau staining. The blot was probed with biotinylated Aspergillus oryzae L-fucose-specific lectin (AOL) (which binds to fucosylated antibodies) and developed with streptavidin HRP and ECL. Gel loading (visible) and fucose signals (bioluminescence) were measured with an Alpha Innotech camera and quantitated with the machine software.

[2] = system: antibody core fucosylation (CHO DG44 cell line producing humanized IgG1 anti-CD70 antibody h1F6); test: Inhibition of antibody core fucosylation in CHO DG44 cell culture producing h1F6; format: cell-based; conditions: day 5, CHO DG44 h1F6; for Inhibition at 50 μM: 50 μM fucose analog, read-out: Inhibition at 50 μM; for inhibition at 1000 µM: 1 mM fucose analog
Description: Fucose analogs have been evaluated for their effect on antibody core fucosylation at concentrations of 50 μM and 1 mM generally as described in Published US Patent Application 2009-0317869. Briefly, the protocol was as follows: A CHO DG44 cell line producing a humanized IgG1 anti-CD70 monoclonal antibody, h1F6 (see International Patent Publication WO 06/113909) was cultured at 7.5×10^5 cells per mL in 2 mLs of CHO culture media at 37°, 5% CO2 and shaking at 100 RPM in a 6 well tissue culture plate. Media was supplemented with insulin like growth factor (IGF), penicillin, streptomycin and either 1 mM or 50 μM of the fucose analog. On day 5 post inoculation, the culture was centrifuged at 13000 RPM for 5 minutes to pellet the cells; antibodies were then purified from supernatant.
Antibody purification was performed by applying the conditioned media to protein A resin pre-equilibrated with 1× phosphate buffered saline (PBS), pH 7.4. After washing resin with 20 resin bed volumes of 1×PBS, antibodies were eluted with 5 resin bed volumes of Immunopure IgG elution buffer (Pierce Biotechnology, Rockford, Ill.). A 10% volume of 1M Tris pH 8.0 was added to neutralize the eluted fraction.

[3] = system: LP-1, a human multiple myeloma cell line (IgG fucosylation); test: Fucosylation of LP-1-generated IgG, AOL dot blot; format: cell-based
Summary of the method: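 LP-1 cells (250,000 cells/mL) treated with 100 μM of each analog for 5 days at 37° C in IgG-depleted RPMI/10% FBS. Secreted IgG purified on protein A, ~0.5 μg dot-blotted (Ponceau S loading check) and probed with 5 μg/ml biotinylated AOL, detected with streptavidin-HRP.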

Row | SMILES | mortality [1] | fucosylation levels of the antibodies reduced, as compared to the untreated controls [1] | Inhibition at 50 μM ([2]; 120 h) [%] | inhibition at 1000 µM ([2]; 120 h) [%] | inhibition of IgG fucosylation in human cells (decrease in AOL signal, dot blot) ([3]; 100 μM, LP-1 cells) | dot blot results (% fucose signal of control) ([3]; LP-1-generated IgG, 100 μM) | Inhibition at 50 μM ([2]; CHO-DG44, 120 h) [%] | inhibition at 1000 µM ([2]; CHO-DG44, 120 h) [%] | activity at 100 µM ([3]; Homo sapiens, LP-1, 120 h, 5 days, LP-1 cells, AOL dot blot, multiple samples separated by semicolon, read-out: % of control fucosylated IgG value) [%]
1 | C#CC(OC(C)=O)[C@@H](OC(C)=O)[C@@H](OC(C)=O)[C@@H](C=O)OC(C)=O (stereo partly shown) [SGD-1890, 5-ethynylarabinose tetraacetate] | No mice died | about one third | > 80 | > 80 | potentially strong inhibitors | ~1 % fucose signal of control |  |  | 
2 | C[C@H](O)[C@@H](O)[C@@H](O)[C@H](F)C=O [SGD-2083, 2-fluoro-2-deoxy fucose] |  | about one third |  |  |  |  | > 80 | > 80 | 66
